Measurements from PMC10046369, “Low-Affinity/High-Selectivity Dopamine Transport Inhibition Sufficient to Rescue Cognitive Functions in the Aging Rat” (Biomolecules, 2023).

Key:
Test in all cases: cell-based
NTS1 (NT1) (h) = target: T1, NTS1 (NT1) (h) (Homo sapiens, UniProt P30989); design: functional GPCR antagonist screen (Eurofins Cerep), percent inhibition of control agonist response; settings: antagonist effect, against control agonist; read-out: % Inhibition of Control Agonist Response, Mean
T1 construct: gene NTSR1
T1 sequence (P30989 whole entry): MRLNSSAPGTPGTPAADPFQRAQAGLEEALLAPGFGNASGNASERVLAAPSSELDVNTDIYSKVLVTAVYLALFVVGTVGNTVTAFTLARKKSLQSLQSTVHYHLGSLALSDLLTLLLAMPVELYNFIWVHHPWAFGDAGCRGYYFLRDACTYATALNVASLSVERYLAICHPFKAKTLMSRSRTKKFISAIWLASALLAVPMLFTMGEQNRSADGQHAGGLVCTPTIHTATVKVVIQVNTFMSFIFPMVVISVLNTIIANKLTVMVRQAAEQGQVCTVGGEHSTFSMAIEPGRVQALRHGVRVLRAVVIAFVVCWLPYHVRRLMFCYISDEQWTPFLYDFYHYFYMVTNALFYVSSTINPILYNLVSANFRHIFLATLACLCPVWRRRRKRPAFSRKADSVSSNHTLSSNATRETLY

MCH1 (h) = target: T2, MCH1 (h) (Homo sapiens, UniProt Q99705); design: functional GPCR antagonist screen (Eurofins Cerep), percent inhibition of control agonist response; settings: antagonist effect, against control agonist; read-out: % Inhibition of Control Agonist Response, Mean
T2 construct: gene MCHR1

PAR2 (h) = target: T3, PAR2 (h) (Homo sapiens, UniProt P55085); design: functional GPCR antagonist screen (Eurofins Cerep), percent inhibition of control agonist response; settings: antagonist effect, against control agonist; read-out: % Inhibition of Control Agonist Response, Mean
T3 construct: gene F2RL1

MC3 (h) = target: T4, MC3 (h) (Homo sapiens, UniProt P41968); design: functional GPCR antagonist screen (Eurofins Cerep), percent inhibition of control agonist response; settings: antagonist effect, against control agonist; read-out: % Inhibition of Control Agonist Response, Mean
T4 construct: gene MC3R

EP1 (h) = target: T5, EP1 (h) (Homo sapiens, UniProt P34995); design: functional GPCR antagonist screen (Eurofins Cerep), percent inhibition of control agonist response; settings: antagonist effect, against control agonist; read-out: % Inhibition of Control Agonist Response, Mean
T5 construct: gene PTGER1

P2Y1 (h) = target: T6, P2Y1 (h) (Homo sapiens, UniProt P47900); design: functional GPCR antagonist screen (Eurofins Cerep), percent inhibition of control agonist response; settings: antagonist effect, against control agonist; read-out: % Inhibition of Control Agonist Response, Mean
T6 construct: gene P2RY1
T6 sequence (P47900 whole entry): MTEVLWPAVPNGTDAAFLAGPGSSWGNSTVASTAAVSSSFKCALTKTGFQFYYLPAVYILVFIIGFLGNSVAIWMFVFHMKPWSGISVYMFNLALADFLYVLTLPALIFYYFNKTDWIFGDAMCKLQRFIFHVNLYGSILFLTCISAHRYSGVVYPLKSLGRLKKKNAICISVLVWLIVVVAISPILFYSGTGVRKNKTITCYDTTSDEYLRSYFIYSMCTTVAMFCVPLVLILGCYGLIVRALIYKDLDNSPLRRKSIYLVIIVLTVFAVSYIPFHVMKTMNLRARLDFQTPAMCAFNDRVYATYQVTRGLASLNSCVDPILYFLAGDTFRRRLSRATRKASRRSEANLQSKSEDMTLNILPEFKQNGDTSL

NMU1 (h) = target: T7, NMU1 (h) (Homo sapiens, UniProt Q9HB89); design: functional GPCR antagonist screen (Eurofins Cerep), percent inhibition of control agonist response; settings: antagonist effect, against control agonist; read-out: % Inhibition of Control Agonist Response, Mean
T7 construct: gene NMUR1
T7 sequence (Q9HB89 whole entry): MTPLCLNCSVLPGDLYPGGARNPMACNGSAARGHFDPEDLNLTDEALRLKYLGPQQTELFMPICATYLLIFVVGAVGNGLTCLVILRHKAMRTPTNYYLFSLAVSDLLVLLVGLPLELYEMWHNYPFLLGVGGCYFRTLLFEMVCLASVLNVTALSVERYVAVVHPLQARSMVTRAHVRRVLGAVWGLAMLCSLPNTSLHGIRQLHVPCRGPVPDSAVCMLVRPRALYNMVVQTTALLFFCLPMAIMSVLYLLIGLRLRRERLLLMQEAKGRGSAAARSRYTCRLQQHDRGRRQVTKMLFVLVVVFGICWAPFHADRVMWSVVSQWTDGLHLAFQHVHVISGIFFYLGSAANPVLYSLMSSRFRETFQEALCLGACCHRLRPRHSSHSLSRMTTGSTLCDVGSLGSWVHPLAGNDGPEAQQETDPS

NPBW1 (h) = target: T8, NPBW1 (h) (Homo sapiens, UniProt P48145); design: functional GPCR antagonist screen (Eurofins Cerep), percent inhibition of control agonist response; settings: antagonist effect, against control agonist; read-out: % Inhibition of Control Agonist Response, Mean
T8 construct: gene NPBWR1
T8 sequence (P48145 whole entry): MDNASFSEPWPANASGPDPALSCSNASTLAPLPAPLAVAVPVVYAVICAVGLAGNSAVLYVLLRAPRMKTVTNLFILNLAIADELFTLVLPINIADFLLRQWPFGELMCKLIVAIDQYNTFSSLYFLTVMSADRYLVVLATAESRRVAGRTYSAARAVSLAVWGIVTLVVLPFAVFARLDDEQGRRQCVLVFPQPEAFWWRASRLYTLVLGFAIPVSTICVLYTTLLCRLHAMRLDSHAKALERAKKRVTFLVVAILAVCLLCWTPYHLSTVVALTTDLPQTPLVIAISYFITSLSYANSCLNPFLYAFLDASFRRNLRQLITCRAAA

EP3 (h) = target: T9, EP3 (h) (Homo sapiens, UniProt P43115); design: functional GPCR antagonist screen (Eurofins Cerep), percent inhibition of control agonist response; settings: antagonist effect, against control agonist; read-out: % Inhibition of Control Agonist Response, Mean
T9 construct: gene PTGER3
T9 sequence (P43115 whole entry): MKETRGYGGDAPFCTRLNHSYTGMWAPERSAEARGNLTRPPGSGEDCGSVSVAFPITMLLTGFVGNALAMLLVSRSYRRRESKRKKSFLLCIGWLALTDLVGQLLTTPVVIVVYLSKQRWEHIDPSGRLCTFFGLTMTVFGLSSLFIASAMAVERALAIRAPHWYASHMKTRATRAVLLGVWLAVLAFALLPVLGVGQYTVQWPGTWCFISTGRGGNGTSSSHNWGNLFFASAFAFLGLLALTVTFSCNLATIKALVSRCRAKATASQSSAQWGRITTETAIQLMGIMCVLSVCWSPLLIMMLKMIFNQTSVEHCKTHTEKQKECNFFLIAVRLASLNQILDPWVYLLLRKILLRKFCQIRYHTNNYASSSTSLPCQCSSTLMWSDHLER

M5 (h) = target: T10, M5 (h) (Homo sapiens, UniProt P08912); design: functional GPCR antagonist screen (Eurofins Cerep), percent inhibition of control agonist response; settings: antagonist effect, against control agonist; read-out: % Inhibition of Control Agonist Response, Mean
T10 construct: gene CHRM5
T10 sequence (P08912 whole entry): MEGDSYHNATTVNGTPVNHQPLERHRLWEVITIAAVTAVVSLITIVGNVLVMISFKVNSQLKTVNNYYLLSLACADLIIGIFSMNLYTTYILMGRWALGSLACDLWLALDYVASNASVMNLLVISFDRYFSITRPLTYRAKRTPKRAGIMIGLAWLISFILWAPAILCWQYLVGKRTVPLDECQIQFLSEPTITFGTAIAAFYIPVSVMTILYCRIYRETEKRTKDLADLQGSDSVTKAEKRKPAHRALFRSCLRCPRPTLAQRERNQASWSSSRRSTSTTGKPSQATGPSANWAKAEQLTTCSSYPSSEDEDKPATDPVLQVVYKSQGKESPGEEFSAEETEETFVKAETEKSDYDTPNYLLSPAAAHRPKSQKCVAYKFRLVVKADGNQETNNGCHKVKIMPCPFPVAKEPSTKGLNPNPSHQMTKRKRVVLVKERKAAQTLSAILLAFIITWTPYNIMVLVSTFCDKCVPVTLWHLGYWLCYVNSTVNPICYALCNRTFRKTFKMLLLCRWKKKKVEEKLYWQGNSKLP

PK2 (h) = target: T11, PK2 (h) (Homo sapiens, UniProt Q8NFJ6); design: functional GPCR antagonist screen (Eurofins Cerep), percent inhibition of control agonist response; settings: antagonist effect, against control agonist; read-out: % Inhibition of Control Agonist Response, Mean
T11 construct: gene PROKR2
T11 sequence (Q8NFJ6 whole entry): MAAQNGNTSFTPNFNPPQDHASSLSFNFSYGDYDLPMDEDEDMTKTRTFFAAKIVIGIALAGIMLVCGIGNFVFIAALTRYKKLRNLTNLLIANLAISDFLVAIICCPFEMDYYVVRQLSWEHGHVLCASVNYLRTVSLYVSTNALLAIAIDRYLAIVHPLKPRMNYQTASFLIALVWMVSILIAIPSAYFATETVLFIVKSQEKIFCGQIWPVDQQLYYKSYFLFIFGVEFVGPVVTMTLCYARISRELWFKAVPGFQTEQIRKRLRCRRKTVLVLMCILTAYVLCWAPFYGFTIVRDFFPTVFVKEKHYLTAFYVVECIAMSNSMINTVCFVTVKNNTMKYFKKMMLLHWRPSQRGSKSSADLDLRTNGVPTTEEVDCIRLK

NPS (h) = target: T12, NPS (h) (Homo sapiens, UniProt Q6W5P4); design: functional GPCR antagonist screen (Eurofins Cerep), percent inhibition of control agonist response; settings: antagonist effect, against control agonist; read-out: % Inhibition of Control Agonist Response, Mean
T12 construct: gene NPSR1

NMU2 (h) = target: T13, NMU2 (h) (Homo sapiens, UniProt Q9GZQ4); design: functional GPCR antagonist screen (Eurofins Cerep), percent inhibition of control agonist response; settings: antagonist effect, against control agonist; read-out: % Inhibition of Control Agonist Response, Mean
T13 construct: gene NMUR2

PK1 (h) = target: T14, PK1 (h) (Homo sapiens, UniProt Q8TCW9); design: functional GPCR antagonist screen (Eurofins Cerep), percent inhibition of control agonist response; settings: antagonist effect, against control agonist; read-out: % Inhibition of Control Agonist Response, Mean
T14 construct: gene PROKR1

PAR1 (h) = target: T15, PAR1 (h) (Homo sapiens, UniProt P25116); design: functional GPCR antagonist screen (Eurofins Cerep), percent inhibition of control agonist response; settings: antagonist effect, against control agonist; read-out: % Inhibition of Control Agonist Response, Mean
T15 construct: gene F2R

LPA2 (h) = target: T16, LPA2 (h) (Homo sapiens, UniProt Q9HBW0); design: functional GPCR antagonist screen (Eurofins Cerep), percent inhibition of control agonist response; settings: antagonist effect, against control agonist; read-out: % Inhibition of Control Agonist Response, Mean
T16 construct: gene LPAR2

NTS2 (NT2) (h) = target: T17, NTS2 (NT2) (h) (Homo sapiens, UniProt O95665); design: functional GPCR antagonist screen (Eurofins Cerep), percent inhibition of control agonist response; settings: antagonist effect, against control agonist; read-out: % Inhibition of Control Agonist Response, Mean
T17 construct: gene NTSR2
T17 sequence (O95665 whole entry): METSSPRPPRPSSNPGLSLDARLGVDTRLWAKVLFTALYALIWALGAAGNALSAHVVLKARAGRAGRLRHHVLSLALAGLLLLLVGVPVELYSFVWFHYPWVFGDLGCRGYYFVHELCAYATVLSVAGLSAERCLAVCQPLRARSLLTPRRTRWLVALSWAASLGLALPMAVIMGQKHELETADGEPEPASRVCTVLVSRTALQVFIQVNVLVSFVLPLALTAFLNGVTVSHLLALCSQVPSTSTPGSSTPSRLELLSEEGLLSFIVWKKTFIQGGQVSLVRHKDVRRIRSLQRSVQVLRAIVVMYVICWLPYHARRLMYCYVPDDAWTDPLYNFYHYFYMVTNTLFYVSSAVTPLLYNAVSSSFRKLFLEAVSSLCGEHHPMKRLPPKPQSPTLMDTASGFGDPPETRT

μ (MOP) (h) = target: T18, μ (MOP) (h) (Homo sapiens, UniProt P35372); design: functional GPCR antagonist screen (Eurofins Cerep), percent inhibition of control agonist response; settings: antagonist effect, against control agonist; read-out: % Inhibition of Control Agonist Response, Mean
T18 construct: gene OPRM1

TP (TXA2/PGH2) (h) = target: T19, TP (TXA2/PGH2) (h) (Homo sapiens, UniProt P21731); design: functional GPCR antagonist screen (Eurofins Cerep), percent inhibition of control agonist response; settings: antagonist effect, against control agonist; read-out: % Inhibition of Control Agonist Response, Mean
T19 construct: gene TBXA2R
T19 sequence (P21731 whole entry): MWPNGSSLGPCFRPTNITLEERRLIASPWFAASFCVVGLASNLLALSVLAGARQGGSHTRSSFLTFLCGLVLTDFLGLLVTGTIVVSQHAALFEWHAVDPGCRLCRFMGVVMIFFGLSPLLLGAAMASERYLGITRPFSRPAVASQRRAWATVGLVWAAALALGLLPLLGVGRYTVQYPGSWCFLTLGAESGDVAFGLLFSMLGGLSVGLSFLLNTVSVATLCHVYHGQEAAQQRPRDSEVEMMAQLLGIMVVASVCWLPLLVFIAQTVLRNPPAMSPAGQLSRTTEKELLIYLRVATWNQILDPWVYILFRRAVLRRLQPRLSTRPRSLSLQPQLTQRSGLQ

FP (h) = target: T20, FP (h) (Homo sapiens, UniProt P43088); design: functional GPCR antagonist screen (Eurofins Cerep), percent inhibition of control agonist response; settings: antagonist effect, against control agonist; read-out: % Inhibition of Control Agonist Response, Mean
T20 construct: gene PTGFR

CaS = target: T21, CaS (Homo sapiens, UniProt P41180); design: Eurofins Cerep functional GPCR screen, antagonist mode, inhibition of control agonist response; settings: read-out: % Inhibition of Control Agonist Response, Mean
T21 construct: gene CASR

β3 = target: T22, β3 (Homo sapiens, UniProt P13945); design: Eurofins Cerep functional GPCR screen, antagonist mode, inhibition of control agonist response; settings: read-out: % Inhibition of Control Agonist Response, Mean
T22 construct: gene ADRB3
T22 sequence (P13945 whole entry): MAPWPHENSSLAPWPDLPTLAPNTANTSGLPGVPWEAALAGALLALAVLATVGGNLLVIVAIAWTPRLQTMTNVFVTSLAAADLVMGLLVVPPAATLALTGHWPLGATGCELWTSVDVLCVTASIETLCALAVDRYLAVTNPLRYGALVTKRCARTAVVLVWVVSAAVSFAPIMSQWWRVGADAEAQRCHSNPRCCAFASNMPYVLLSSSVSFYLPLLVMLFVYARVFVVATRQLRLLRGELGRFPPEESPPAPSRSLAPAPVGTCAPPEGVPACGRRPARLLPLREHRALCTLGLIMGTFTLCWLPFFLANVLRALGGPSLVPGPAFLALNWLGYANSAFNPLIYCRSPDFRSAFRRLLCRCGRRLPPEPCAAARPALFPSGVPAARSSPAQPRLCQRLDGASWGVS

A2B = target: T23, A2B (Homo sapiens, UniProt P29275); design: Eurofins Cerep functional GPCR screen, antagonist mode, inhibition of control agonist response; settings: read-out: % Inhibition of Control Agonist Response, Mean
T23 construct: gene ADORA2B
T23 sequence (P29275 whole entry): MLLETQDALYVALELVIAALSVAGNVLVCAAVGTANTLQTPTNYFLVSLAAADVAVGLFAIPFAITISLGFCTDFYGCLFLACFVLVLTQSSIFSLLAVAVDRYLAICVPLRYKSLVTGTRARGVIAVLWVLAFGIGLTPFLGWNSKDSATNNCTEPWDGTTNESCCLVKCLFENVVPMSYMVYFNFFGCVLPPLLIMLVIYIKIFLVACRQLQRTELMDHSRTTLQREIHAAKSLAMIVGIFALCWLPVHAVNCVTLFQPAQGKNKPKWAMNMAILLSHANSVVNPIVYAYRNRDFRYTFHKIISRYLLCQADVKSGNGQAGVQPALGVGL

CCK2 (CCKB) = target: T24, CCK2 (CCKB) (Homo sapiens, UniProt P32239); design: Eurofins Cerep functional GPCR screen, antagonist mode, inhibition of control agonist response; settings: read-out: % Inhibition of Control Agonist Response, Mean
T24 construct: gene CCKBR
T24 sequence (P32239 whole entry): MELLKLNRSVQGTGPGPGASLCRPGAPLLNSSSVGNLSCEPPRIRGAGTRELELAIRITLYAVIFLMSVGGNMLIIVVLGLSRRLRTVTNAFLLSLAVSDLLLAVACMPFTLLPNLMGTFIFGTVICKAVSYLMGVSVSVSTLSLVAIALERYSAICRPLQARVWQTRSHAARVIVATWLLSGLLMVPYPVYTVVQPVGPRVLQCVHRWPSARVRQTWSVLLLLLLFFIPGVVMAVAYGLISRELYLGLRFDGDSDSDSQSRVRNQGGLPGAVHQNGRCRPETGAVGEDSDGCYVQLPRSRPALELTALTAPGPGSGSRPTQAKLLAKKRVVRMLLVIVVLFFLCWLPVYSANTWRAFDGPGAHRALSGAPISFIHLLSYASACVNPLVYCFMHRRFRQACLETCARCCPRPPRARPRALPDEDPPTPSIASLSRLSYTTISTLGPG

[O-][S@@+](Cc1cncs1)C(c1ccccc1)c1ccccc1 [S-CE-123, (S)-5-((Benzhydrylsulfinyl)Methyl)Thiazole]
inhibition at 2.8 µM (NTS1 (NT1) (h)): -10%
inhibition at 2.8 µM (MCH1 (h)): -0.9%
inhibition at 2.8 µM (PAR2 (h)): -19.4%
inhibition at 2.8 µM (MC3 (h)): -7.8%
inhibition at 2.8 µM (EP1 (h)): -11.9%
inhibition at 2.8 µM (P2Y1 (h)): -6.7%
inhibition at 2.8 µM (NMU1 (h)): -21.3%
inhibition at 2.8 µM (NPBW1 (h)): -1.9%
inhibition at 2.8 µM (EP3 (h)): -30.8%
inhibition at 2.8 µM (M5 (h)): -5.9%
inhibition at 2.8 µM (PK2 (h)): 7.3%
inhibition at 2.8 µM (NPS (h)): -14.3%
inhibition at 2.8 µM (NMU2 (h)): -17.7%
inhibition at 2.8 µM (PK1 (h)): 2.5%
inhibition at 2.8 µM (PAR1 (h)): 2.1%
inhibition at 2.8 µM (LPA2 (h)): -10.9%
inhibition at 2.8 µM (NTS2 (NT2) (h)): 22.9%
inhibition at 2.8 µM (μ (MOP) (h)): 5%
inhibition at 2.8 µM (TP (TXA2/PGH2) (h)): 2.5%
inhibition at 2.8 µM (FP (h)): 6.7%
inhibition at 2.8 µM (CaS): -6.4%
inhibition at 2.8 µM (β3): 15.5%
inhibition at 2.8 µM (A2B): -11.8%
inhibition at 2.8 µM (CCK2 (CCKB)): -6.9%
